In assay [1] the target is T1, ACC1 (Homo sapiens, UniProt Q13085).
T1 construct: gene ACACA
The assay can be described thus: ACC1 inhibition IC50 (assay details not given; Supplementary Figure S1A). Type of assay: biochemical.

Assay [2] addresses T2, ACC2 (Homo sapiens, UniProt O00763).
T2 construct: gene ACACB
Kind of assay: ACC2 inhibition IC50 (assay details not given; Supplementary Figure S1A). The class given is biochemical.

pIC50: −log10 of the molar value.

By pIC50 is commonly meant the negative decadic logarithm of the IC50, by convention in mol/L. Lower therefore signals a large IC50.

T2 sequence (O00763 whole entry): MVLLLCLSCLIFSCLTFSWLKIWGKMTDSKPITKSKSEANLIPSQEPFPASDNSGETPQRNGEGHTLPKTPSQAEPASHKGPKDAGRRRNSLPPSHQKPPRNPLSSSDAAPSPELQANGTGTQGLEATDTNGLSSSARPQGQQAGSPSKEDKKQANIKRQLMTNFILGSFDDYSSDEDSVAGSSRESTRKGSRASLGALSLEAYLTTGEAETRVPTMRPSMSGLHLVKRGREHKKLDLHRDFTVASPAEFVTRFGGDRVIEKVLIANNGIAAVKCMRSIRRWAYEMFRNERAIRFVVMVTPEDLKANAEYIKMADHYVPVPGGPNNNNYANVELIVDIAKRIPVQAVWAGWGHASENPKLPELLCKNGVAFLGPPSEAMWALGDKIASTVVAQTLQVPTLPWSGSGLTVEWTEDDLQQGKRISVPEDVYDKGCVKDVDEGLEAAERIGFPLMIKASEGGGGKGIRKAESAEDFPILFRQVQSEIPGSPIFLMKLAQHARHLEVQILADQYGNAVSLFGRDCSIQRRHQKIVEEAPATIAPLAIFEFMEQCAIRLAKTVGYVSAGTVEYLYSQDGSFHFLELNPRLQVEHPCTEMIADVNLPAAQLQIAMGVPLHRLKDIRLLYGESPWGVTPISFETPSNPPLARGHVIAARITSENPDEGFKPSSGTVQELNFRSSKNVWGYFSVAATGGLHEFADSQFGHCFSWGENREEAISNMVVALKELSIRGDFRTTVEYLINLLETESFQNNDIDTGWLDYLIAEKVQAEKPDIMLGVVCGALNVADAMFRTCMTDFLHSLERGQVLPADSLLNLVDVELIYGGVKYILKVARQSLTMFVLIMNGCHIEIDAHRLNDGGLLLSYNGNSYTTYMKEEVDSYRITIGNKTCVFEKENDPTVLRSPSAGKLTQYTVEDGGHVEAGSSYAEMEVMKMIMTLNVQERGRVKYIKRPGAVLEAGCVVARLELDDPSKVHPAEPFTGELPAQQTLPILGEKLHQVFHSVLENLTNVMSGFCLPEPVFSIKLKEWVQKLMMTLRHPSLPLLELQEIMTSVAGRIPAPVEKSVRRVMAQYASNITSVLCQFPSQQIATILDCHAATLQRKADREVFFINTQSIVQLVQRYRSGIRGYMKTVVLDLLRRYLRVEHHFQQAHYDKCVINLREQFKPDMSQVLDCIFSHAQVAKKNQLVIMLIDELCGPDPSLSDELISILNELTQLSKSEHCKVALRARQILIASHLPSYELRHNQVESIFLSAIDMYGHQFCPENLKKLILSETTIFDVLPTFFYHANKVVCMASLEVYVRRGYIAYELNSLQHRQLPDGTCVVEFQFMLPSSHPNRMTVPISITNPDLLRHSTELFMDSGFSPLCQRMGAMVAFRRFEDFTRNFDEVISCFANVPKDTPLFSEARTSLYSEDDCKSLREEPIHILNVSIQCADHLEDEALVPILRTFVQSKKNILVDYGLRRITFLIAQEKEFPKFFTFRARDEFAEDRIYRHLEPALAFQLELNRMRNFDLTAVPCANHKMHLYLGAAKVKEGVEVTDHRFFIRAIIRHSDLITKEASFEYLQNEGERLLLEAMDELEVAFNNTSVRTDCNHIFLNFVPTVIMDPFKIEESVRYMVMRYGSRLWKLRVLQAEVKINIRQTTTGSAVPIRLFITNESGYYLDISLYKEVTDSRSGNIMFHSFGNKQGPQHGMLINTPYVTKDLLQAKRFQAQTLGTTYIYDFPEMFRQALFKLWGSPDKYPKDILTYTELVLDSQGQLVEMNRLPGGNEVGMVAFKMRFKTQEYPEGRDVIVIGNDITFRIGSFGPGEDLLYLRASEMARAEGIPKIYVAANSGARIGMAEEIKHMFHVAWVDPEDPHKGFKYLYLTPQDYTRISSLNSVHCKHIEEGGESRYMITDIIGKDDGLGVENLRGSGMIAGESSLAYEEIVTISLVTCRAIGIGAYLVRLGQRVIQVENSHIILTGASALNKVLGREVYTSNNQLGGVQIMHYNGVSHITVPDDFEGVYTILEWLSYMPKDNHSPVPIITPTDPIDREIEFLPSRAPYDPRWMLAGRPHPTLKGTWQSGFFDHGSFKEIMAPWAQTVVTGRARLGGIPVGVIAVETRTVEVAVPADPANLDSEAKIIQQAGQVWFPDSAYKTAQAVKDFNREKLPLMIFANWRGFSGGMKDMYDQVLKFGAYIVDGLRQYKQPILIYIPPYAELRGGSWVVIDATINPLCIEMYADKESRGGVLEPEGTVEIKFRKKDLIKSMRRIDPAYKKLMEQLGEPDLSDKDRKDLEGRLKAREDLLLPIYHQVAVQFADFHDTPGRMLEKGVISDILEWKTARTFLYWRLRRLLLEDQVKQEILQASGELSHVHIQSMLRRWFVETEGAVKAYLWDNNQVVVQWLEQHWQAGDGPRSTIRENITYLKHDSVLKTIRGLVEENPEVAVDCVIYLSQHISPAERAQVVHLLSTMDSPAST

BAY ACC001: the pIC50 in assay [1] was 6.55; in assay [2], 5.59.
BAY ACC002: the pIC50 in assay [1] is 7.00; in assay [2] it was 5.85.

For the origin of these results see PMC5564715, “Acetyl-CoA carboxylase inhibitors attenuate WNT and Hedgehog signaling and suppress pancreatic tumor growth” (Oncotarget, 2016).
